Consider three compounds from patent publication US8202899B2, “Pyrazole urea derivatives used as kinase inhibitors” (Array BioPharma Inc., priority 2007, dated 2012).

A word on the solubility: it is the dissolved amount per volume that the medium holds. What is called pIC50 is the IC50 on a negative log10 scale, so that one unit is a factor of ten.

A short description of data set [1]: Solubility Assay (modified shake flask method). The format is physicochemical. The protocol: The solubility of each of the compounds of Examples 1 and 2 were tested at pHs 1.2, 6.5 and 7.4 using a modified shake flask method. The compounds were received as 1.6 mg/mL stock solutions in DMSO. Aqueous unknowns were prepared at final concentrations of 16 μg/mL and 32 μg/mL, with each aqueous unknown containing 1% or 2% DMSO, respectively. The aqueous samples were quantitated against organic standards prepared in MeOH (with 1% DMSO in the high standard (16 μg/mL). UV 220 nm and UV 254 nm area were used for quantitation.

The target of the next data set is activated p38α enzyme (Homo sapiens, UniProt Q16539). In words: p38 Biochemical Assay. The protocol:
p38 activity was assayed at room temperature in a 100 μL reaction containing 5 nM activated p38α enzyme and 1 μM ATF-2 (Activating Transcription Factor 2 fusion protein) as the substrate in […] HEPES (pH 7.4), 100 μM Vanadate, 1 mM :DTT, 10 mM MgCl2 and 10 μM [γ-^33P]-ATP (˜0.1 μCi P^33/reaction). The reaction was terminated after 30-40 minutes by adding 25% TCA, allowed to stand for 5 minutes, and then transferred directly to a GF-B membrane filter plate. The filter was washed twice for 30 seconds with 0.5% phosphoric acid using a Tomtec Mach III Automated Harvestor. After washing, the vacuum was continued for 30 seconds to dry the filter. Approximately 30 μL of scintillant was added per well to the filter plate and then read in a Liquid Scintillation Counter (Packard TopCount HTS).

For data set [2], the system named is TNF-α production in whole blood treated with LPS. In words: Human Whole Blood TNF-α Assay. The class given is cell-based. To be noted: inhibition of LPS-induced TNF-α production, ELISA, read-out: apparent IC50. On the procedure: In a functional cell assay, the compound of Examples 1 and 2 were tested for their ability to inhibit TNF-α production in whole blood treated with bacterial lipopolysaccharide (LPS) to induce cytokine production (as detected by ELISA).
Compound test solutions were made by making 3.33 fold serial dilutions in DMSO, which dilutions were then diluted to 5× stocks by diluting with MEM, 2% heat inactivated fetal bovine serum (“MS”), 20 mM HEPES, 2 mM L-glutamine, and 1% penicillin/streptomycin
Whole blood was collected from human volunteers using sodium heparin Vacutainer™ tubes and processed within two hours of collection. Blood was diluted 3-fold with Whole Blood (WB) medium (RPMI 1640, 2% heat inactivated fetal bovine serum, 20 mM HEPES, 2 mM L-glutamine, and 1% penicillin/streptomycin). 100 μL of diluted blood was added to each well of a 96-well cell culture plate, followed by 30 μL of a compound test solution.
After a one-hour incubation at 37° C./5% CO2, 20 μL of 7.5 ng/mL lipopolysaccharide (E. coli K-235, Sigma L2018) was added to each well. The cells were incubated again at 37° C./5% CO2 for 16-20 hours. […]
Briefly, test compound supernatants were added to wells of a 96-well plate that were coated with antibody to human TNF-α (R&D Systems, MAB210) and incubated at room temperature for at least one hour. […] The absorbance at 405 nm was then read.

Structures are written as SMILES. pIC50: −log10 of the molar value. ≈ marks a conversion by molar mass, not a printed value. Like-named read-outs stand apart in the source and are kept apart here.

Sequence of activated p38α enzyme (Q16539 whole entry, the tested form may be a part): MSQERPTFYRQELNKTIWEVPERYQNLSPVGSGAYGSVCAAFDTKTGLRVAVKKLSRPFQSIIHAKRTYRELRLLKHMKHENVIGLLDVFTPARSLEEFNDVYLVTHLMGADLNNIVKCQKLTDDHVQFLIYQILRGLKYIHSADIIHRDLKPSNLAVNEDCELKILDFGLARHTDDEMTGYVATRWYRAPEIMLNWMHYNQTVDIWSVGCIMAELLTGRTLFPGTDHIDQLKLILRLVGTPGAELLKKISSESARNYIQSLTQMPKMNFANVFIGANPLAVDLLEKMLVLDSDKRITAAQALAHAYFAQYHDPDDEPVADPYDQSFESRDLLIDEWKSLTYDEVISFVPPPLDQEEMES

In the case of `Cn1nc(C(C)(C)C)cc1NC(=O)NCc1cc(F)ccc1Oc1ccc2c(cnn2CC(C)(C)O)c1` [Example 138, reference compound], the solubility in data set [1] (aqueous solution (pH 7.4), aqueous buffer, pH 7.4, starting conc. 1000 μg/mL, read-out: Solubility pH 7.4) amounted to 0.045 µg/mL (≈ 0.0885 µM).
In the case of `CC(C)(C)c1cc(NC(=O)NCc2cc(F)ccc2Oc2ccc3c(cnn3CCO)c2)n(-c2ccc(CO)cc2)n1` [Example 2, 1-(3-tert-butyl-1-(4-(hydroxymethyl)phenyl)-1H-pyrazol-5-yl)-3-(5-fluoro-2-(1-(2-hydroxymethyl)-1H-indazol-5-yloxy)benzyl)urea], the “p38 inhibition potency compared to the compound of Example 138 of WO 2004/078116” value on activated p38α enzyme is given as “significantly more potent inhibitor of p38”. Moreover, the pIC50 in data set [2] is 8.72.
Take `Cc1ccc(-n2nc(C(C)(C)CO)cc2NC(=O)NCc2cc(F)ccc2Oc2ccc3c(cnn3CCO)c2)cc1` [Example 1]: in data set [2], the pIC50 was 6.35. Moreover, the solubility is 0.75 µg/mL (≈ 1.31 µM) in data set [1] (aqueous sample containing 1% DMSO, aqueous buffer, kinetic from dmso stock, pH 6.5, starting conc. 16 μg/mL (with 1% DMSO), read-out: Solubility pH 6.5); 0.7 µg/mL (≈ 1.22 µM) in data set [1] (aqueous sample containing 1% DMSO, aqueous buffer, kinetic from dmso stock, pH 7.4, starting conc. 16 μg/mL (with 1% DMSO), read-out: Solubility pH 7.4); 7.9 µg/mL (≈ 13.8 µM) in data set [1] (aqueous sample containing 1% DMSO, simulated gastric fluid, kinetic from dmso stock, pH 1.2, starting conc. 16 μg/mL (with 1% DMSO), read-out: Solubility pH 1.2); 1.8 µg/mL (≈ 3.14 µM) in data set [1] (aqueous sample containing 2% DMSO, aqueous buffer, kinetic from dmso stock, pH 6.5, starting conc. 32 μg/mL (with 2% DMSO), read-out: Solubility pH 6.5); 1.7 µg/mL (≈ 2.97 µM) in data set [1] (aqueous sample containing 2% DMSO, aqueous buffer, kinetic from dmso stock, pH 7.4, starting conc. 32 μg/mL (with 2% DMSO), read-out: Solubility pH 7.4); 18.8 µg/mL (≈ 32.8 µM) in data set [1] (aqueous sample containing 2% DMSO, simulated gastric fluid, kinetic from dmso stock, pH 1.2, starting conc. 32 μg/mL (with 2% DMSO), read-out: Solubility pH 1.2). For the same compound, the “aqueous solubility compared to the compound of Example 138 of WO 2004/078116” value in data set [1] (at pH 6.5 and 7.4) is listed as “improved aqueous solubility”.
